{"source": "paper PMC5090206", "about": "“Fluselenamyl: A Novel Benzoselenazole Derivative for PET Detection of Amyloid Plaques (Aβ) in Alzheimer’s Disease” (Scientific Reports, 2016)", "biological_target": "Aβ plaques (Homo sapiens, UniProt P05067)", "sequence (P05067 672-711 limits assumed)": "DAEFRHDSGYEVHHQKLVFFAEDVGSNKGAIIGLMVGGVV", "experiment": "Ex vivo autoradiography of APP/PS1 Tg and WT mouse brain sections", "format": "in vivo", "details": "for target/reference count intensity ratio (mean ± SD): 30 min post injection, cortex and amygdala vs hypothalamus; for target/reference count intensity ratio: brain stem as reference region", "protocol": "Uptake in brain and other critical organs was analyzed in terms of percent injected dose per gram of the tissue (%ID/g) SI Table 1. For in vivo imaging of Aβ plaques, the basic pharmacokinetic model in normal brains involves a high initial penetration of the agent, accompanied by facile clearance due to lack of a binding target. […] For comparison, brain uptake ratios of [^18F]-AV-45 (2 min/2 h) and [^18F]-Florbetaben (2 min/4 h) in normal mice are 4.07 (%ID/g (brain): 2 min: 7.33 ± 1.54; 2 h: 1.80 ± 0.07; 7.33/1.80; 4.07)[10] and 5.0 (%ID/g (brain): 2 min: 4.77; 4 h: 0.95; 4.77/0.95; 5.02)[46], respectively. […] For an agent to be able to serve as an Aβ-imaging agent, literature precedents indicate that brain uptake ratio (%ID/g; the earliest time–point; 2–5 min to that of the latest time point; typically for carbon-11; 30–60 min; and F-18, 2 h) of 3.5 or above could be considered as a benchmark for ability of a given agent to cross the blood-brain barrier. Additionally, the brain uptake of a given imaging agent is also a net function of several components, such as cerebral regional blood flow, BBB permeability, plasma radiotracer concentration, and free fractions of the radiotracer in plasma and in the brain. Furthermore, the lipophilicity of a given compound also reflects a critical physicochemical trait for neuroimaging radiotracers due to its direct relationship to membrane permeability, solubility in water, and entropic contribution to binding. Literature precedents indicate that lipophilic drugs readily cross the BBB, although other chemical characteristics, including the number of hydrogen bonds, molecular weight, polar surface area and molecular size are also known to be critical traits for passive transport. […] Conversely, radiotracers that are too lipophilic can also bind plasma proteins, undergo fast metabolism, while also contributing to high nonspecific binding, such as white matter. […] For ROI analysis of the PET signal in brain section autoradiograms of transgenic mouse (Fig. 7A) and its WT counterpart (Fig. 7D), we used measured count densities in cortex and amygdala target regions and compared them with that of hypothalamus as reference region with a low plaque density as determined by Aβ immunostaining (Fig. 7B). […] Since brain stem was also devoid of plaques, we also analyzed the above target regions using brain stem as a reference region, and observed target/reference value in the transgenic to be 0.89 ± 0.1 compared to 0.45 ± 0.07 in the WT mouse. […]", "data": [{"smiles": "CN(C)c1ncc(/C=C\\c2nc3cc(OCC[18F])ccc3[se]2)cn1", "note": "[[^18F]-9]", "values": [{"measurement": "target/reference count intensity ratio (mean ± SD)", "setting": "24 months APP/PS1 transgenic mouse", "value": "1.88 ± 0.22"}, {"measurement": "target/reference count intensity ratio", "setting": "APP/PS1 transgenic mouse", "value": "0.89 ± 0.1"}, {"measurement": "target/reference count intensity ratio (mean ± SD)", "setting": "WT control mouse", "value": "0.96 ± 0.12"}, {"measurement": "target/reference count intensity ratio", "setting": "WT mouse", "value": "0.45 ± 0.07"}]}]}
